Here are results for 1 compound from patent US20060241143A1, “Combination of paroxetine and 2-methoxy-5-(5-trifluoromethyl-tetrazol-1-yl-benzyl)-(2s-phenyl-piperidin-3s-yl)-amine for treatment of depression and/or anxiety” (priority 2003, published 2006).

Molecules are shown by their SMILES.

In the test the test system is mongolian gerbils. Briefly: gerbil social interaction model (time spent in active social interactions). Format: in vivo. The conditions noted are these: 0.03 mg/kg i.p. (as free base), one hour after administration. How it is done:
Paroxetine hydrochloride hemihydrate (0.3 mg/kg p.o of the paroxetine measured as the free base), 2-methoxy-5-(5-trifluoromethyl-tetrazol-1-yl-benzyl)]-(2S-phenyl-piperidin-3S-yl)-amine dihydrochloride (hereinafter compound A) (0.03 mg/kg i.p of the compound A measured as the free base) and a combination of paroxetine (0.3 mg/kg p.o. of the paroxetine measured as the free base) and compound A (0.03 mg/kg i.p. of the compound A measured as the free base) were administered independently in mongolian gerbils to assess the effect on time spent in active social interactions.
The results obtained one hour after administration, expressed as a percentage variation of the time spent in active social interactions by each animal in respect to the value obtained by treatment of control animals, are summarised in table 1.

In the case of `COc1ccc(-n2nnnc2C(F)(F)F)cc1CN[C@H]1CCCN[C@H]1c1ccccc1.Cl.Cl` [Compound A], the “% Variation of the time spent in active social interactions in respect to control animals” value was “+19.9%”.
